# From US8114406B2, “Peptides and their utility in modulation of behavior of cells expressing α3β1 integrins” (The United States of America as represented by the …, priority 1999, dated 2012)
# Where two headings read alike, the source gives them in different places. Where no end group is shown, it is not given here.
# Assays:
# [1] = test system: MDA-MB-435 breast carcinoma cells; assay: Inhibition of MDA-MB-435 cell adhesion to immobilized peptide 678 (microscopic adhesion assay); format: cell-based, human
# Method: (§1) Adhesion assays of cells other than small cell lung carcinoma (SCLC)-Adhesion was measured on polystyrene or glass substrates coated with peptides or proteins as previously described (Guo et al., 1992). Peptides dissolved in PBS at 0.4 to 50 μM were incubated in polystyrene microliter plate wells overnight at 4° C. The wells were washed 3 times with distilled water. Adsorbed peptide was quantified using the BCA assay (Pierce Chemical) measuring absorbance at 570 and 630 nm as described by the supplier's protocol. The assay for adsorption was calibrated using purified peptide in solution as a standard. After blocking with 1% BSA in Dulbecco's PBS, adhesion assays were performed by adding cells suspended in DMEM (BAE cells) or medium 199 (human cells) containing 1 mg/ml BSA. Cell attachment and spreading was quantified microscopically.
# [2] = test system: OH1 SCLC cells; format: cell-based, human; conditions: soluble
# Method: Net, proliferation was determined by the CellTiter assay (Promega) and is presented as mean±SD, n=3. […] The cells were fixed and photographed using Nomarski optics. Bar=100 μm. […] Panel E: α3β1 Integrin ligands cooperate with EGF to inhibit OH1 cell proliferation. […] Net proliferation is presented as a percent of the -EGF control (mean±SD, n=3 for treated groups and n=6 for control groups).
# Proteins and peptides were immobilized on Nunc Maxisorp 96 well plates by overnight incubation with the proteins or peptides dissolved in 50 μl of sterile Dulbecco's PBS. The supernatant fluid was removed, and the wells were incubated for 30 min. in DPBS containing 1% BSA. OH1 cells (1×10^4/well) were added in RPMI containing 15% FCS and incubated for 72 h at 37° in 5% CO2. For assessing inhibition by soluble proteins or peptides, OH1 cells were grown in suspension in Nunclon 96 well tissue culture plates using the same medium.
# [3] = test system: BAE cells; conditions: added in solution
# Method: (§5) Briefly, 100 μl of a 5×10^4 cell/ml suspension of BAE cells were seeded in triplicate into 96 well tissue culture plate in DMEM medium containing 1% FCS, 10 ng/ml of FGF2 and peptides at 1-40 μM concentrations. Cells were incubated for 72 h, and proliferation was measured using the Celltiter tetrazolium assay (Promega). […] Proliferation was determined at 72 h, and is presented as a percent of the control, mean±S.D., n=3 for experimental points and n=6 for control. […] FIG. 19E: HDME cell proliferation in MCDB growth medium with 5% FCS was determined in the presence of 10 ng/ml FGF2 and the indicated concentrations of TSP1 added in the medium (Δ) or immobilized on the substrate (●) or in wells coated with the indicated concentrations of peptide 678 (●).
# (§6) Cell proliferation was measured using the Cell-Titer colorimetric assay (Promega) as previously described (Vogel et al., 1993). A 100 μl volume of BAE cell suspension at 50,000 cells/ml in DMEM containing 1% FBS and supplemented with 10 ng/ml FGF2 was plated in triplicate in 96 well tissue culture plates either in the presence of peptides in solution or in wells that were pre-coated with 100 μl of the peptides at 40° C. overnight and aspirated just before adding cells. Cells were grown for 72 hours at 37° C. in a humidified incubator with 5% CO2. […] HDME cell proliferation was measured in MCDB growth medium without heparin, VEGF, or FGF2.
# [4] = test system: chick chorioallantoic membrane (CAM) angiogenesis; assay: Chick chorioallantoic membrane (CAM) angiogenesis assay; format: in vivo, chicken; conditions: for Angiogenic response (% inhibition): relative to control gels, mean ± SD; for activity in the CAM assay: in vivo
# Method: Fertilized Leghorn chicken eggs were obtained from Ramona Duck farm (Westminster, Calif.). At day 3 of development, the embryos were placed on 100 mm petri dishes. Assays were performed as previously described (Iruela-Arispe et al., 1999). […] Peptides were filtered on Centricon P100 prior to their analysis on the CAM assays to eliminate traces of endotoxin. Pellets were applied to the outer ⅓ of the CAM, and the assay was performed for 24 h. Detection of capillary growth was done by injection of FITC-dextran in the bloodstream and observation of the pellets under a fluorescent inverted microscope. Positive controls (growth factors and vehicle), as well as negative controls (vehicle alone) were placed in the same CAM and used as reference of 100% stimulation or baseline inhibition (0%), and response to the peptides was determined according to these internal controls. Assays were performed in duplicate in each CAM and in four independent CAMs (total of 8 pellets).
# [5] = test system: MDA-MB-435 cells; assay: MDA-MB-435 cell chemotaxis in modified Boyden chambers; format: cell-based, human
# Method: FIGS. 10A and 10B display the measurement of MDA-MB-435 cell chemotaxis. Panel A: Dose-dependence for stimulation of MDA-MB-435 cell motility by peptide 678 added to the lower well of a modified Boyden chamber. Cells migrated to the lower surface of an 8 μm pore polycarbonate filter were quantified microscopically after 7 h, mean±SD, n=3 for a representative experiment. […] Chemotaxis of untreated cells (striped bars) or cells treated with 10 nM IGF1 in the upper chamber (solid bars) was determined after 7 h and is presented as mean±S.D., n=3.
# [6] = test system: BAE cells; assay: Scratch wound repair of BAE cells; format: cell-based, bovine; conditions: cells arrested using 5-fluorouracil; 24 h
# Method: BAE cells were seeded at a density of 2×10^5 cells/well of 6 well tissue culture plates in complete growth medium supplemented with 10% FBS. After the cells formed a confluent cobblestone, cells were arrested using 10 μg/ml 5-fluorouracil for 48 h. Scrape wounds of 2 mm, width were made in the wells, and the cells were further incubated with medium containing 10% FBS, 10 μg/ml 5 fluorouracil and peptides 678, 709, or 690. Measurements of the distance between the wound margins were taken at 0 and 24 h, and the net migration is expressed as mean±SEM for triplicates.
# The in vitro wound healing assay used was a slight modification of that described by Joyce et al. (Joyce et al., 1989). A confluent monolayer of BAE cells pretreated with 10 μg/ml 5-fluorouracil for […] were used in this assay. […] Mitosis of the BAE cells in the monolayers was inhibited by addition of 5-fluorouracil, so that the rate of wound closure was due solely to the migration of cells into the wound sites. The distances between the wound margins were measured as soon as the wound was made and 24 hours later using a grid incorporated into the eye piece of the microscope. All data represent the results obtained from three independent scratch wounds for each peptide tested.
# [7] = test system: BAE cells
# Method: Direct adhesion of BAE cells to the adsorbed peptides or uncoated substrate (control) are presented as mean±SD, n=3. […] Two flasks of BAE cells were grown to confluence. One flask was harvested and replated in fresh medium at 25% confluency. Fresh medium was added at the same time to the second flask. After 16 h, cells from both flasks were dissociated using EDTA and adhesion was measured on substrates coated with 40 μg/ml TSP1, 10 μg/ml vitronectin, 20 μg/ml plasma fibronectin, or 5 μg/ml type I collagen. The percent spread cells after 60 min is presented as mean±SD, n=3 for a representative experiment.
# [8] = test system: N417 SCLC cells; assay: SCLC cell adhesion to extracellular matrix proteins, N417; format: cell-based, human
# Method: (§2) For adhesion assays of SCLC, these cells were washed once with RPMI 1640 and centrifuged at 400×g for 3 min. The pellet was suspended in 2.5 mM EDTA in PBS, pH 7.4 and incubated for 10 min at 37° C. After trituration three times and centrifugation, the cells were resuspended in RPMI 1640 containing 0.1% BSA (Sigma Co. St Louis, Mo.).
# (§3) Adhesion of SCLC cells to extracellular matrix proteins. Extracellular matrix proteins or peptides in Dulbecco's PBS were adsorbed onto polystyrene by incubating overnight at 4° C. […] The supernatant fluid was removed, and the dishes were incubated with Tris-gelatin (ICN) (50 mM Tris-HCl, 110 mM NaCl, 5 mM CaCl2, 0.1 mM phenylmethylsulfonyl fluoride, 0.2% gelatin and 0.02% NaN3, pH 7.8) or Dulbeccos PBS with 1% BSA, as indicated, for 30 min to minimize nonspecific adhesion. The disks were washed twice with cold PBS, pH 7.2 and overlayed with dissociated SCLC cells prepared as described above at a density of 2.5×10^5/cm^2.
# (§4) For inhibition studies with SCLC cells, inhibitors or antibodies were added and incubated with SCLC cells at the indicated concentrations. After incubation for 60-90 min at 37° C., the disks were washed by dipping six times in PBS, pH 7.2, fixed with 1% glutaraldehyde in PBS, pH 7.2, and stained with Diff-Quik. Attached cells were counted microscopically.
# [9] = test system: HDME cells; assay: HDME cell proliferation; format: cell-based, human
# Method: as §5, §6
# [10] = test system: H69 SCLC cells; assay: SCLC cell adhesion to extracellular matrix proteins, H69; format: cell-based, human
# Method: as §2, §3, §4
# [11] = test system: HUVEC; assay: HUVEC spreading on coated substrates; format: cell-based, human; conditions: data not shown
# Method: FIGS. 14A, 14B and 14C display α3β1 and αvβ3 integrin-mediated spreading of endothelial cells on thrombospondin-1. […] Results are expressed as percent of the response for untreated cells, mean±S.D., n=3.
# as §1
# [12] = test system: H345 SCLC cells; assay: SCLC cell adhesion to extracellular matrix proteins, H345; format: cell-based, human
# Method: as §2, §3, §4
# [13] = test system: HDME cells; assay: HDME cell spreading on coated substrates; format: cell-based, human
# Method: Spreading was determined microscopically for cells with no additions, in the presence of 10 μM peptide 678, or in the presence of 30 μM of the control peptide 690. Results are presented as mean±SD, n=3. […] The percent spread cells was determined at 60 min.
# as §1
# [14] = Table 3, 5 μM peptide 678, read-out: IC50 (μM), inhibition of MDA-MB-435 cell adhesion to immobilized peptide 678
# [15] = microscopic adhesion assay, polystyrene coated with 5 μM peptide 678, peptides in solution, read-out: Inhibition of peptide 678 (IC50)
# [16] = cells harvested from a confluent monolayer
substance,measurement,setting,value
FQGVLQAVRFVF [Peptide 686],IC50,[1]; [14],> 300 µM
same,IC50,[1]; [15],> 300 µM
same,inhibition of OH1 cell proliferation,[2],inactive
same,inhibition of BAE cell proliferation,[3],inactive
same,Angiogenic response (% inhibition),[4]; 5 μM peptide,3 ± 4%
same,Angiogenic response (% inhibition),[4]; 10 μM peptide,4 ± 6%
same,Angiogenic response (% inhibition),[4]; 20 μM peptide,15 ± 7%
same,activity in the CAM assay,[4],reduced activity
FQGVLQNVAFVF [Peptide 690],IC50,[1]; [14],> 300 µM
same,IC50,[1]; [15],> 300 µM
same,stimulation of chemotaxis,[5],inactive
same,inhibition of BAE cell migration into the wound,[6],did not inhibit
same,inhibition of density-dependent BAE spreading on intact TSP1 and the TSP1 peptide,[7]; peptide added in solution,not significantly inhibited
same,endothelial cell attachment on immobilized peptide,[7]; peptides adsorbed at 10 μM (FIG. 11A),not
same,Angiogenic response (% inhibition),[4]; 5 μM peptide,3 ± 3%
same,Angiogenic response (% inhibition),[4]; 10 μM peptide,5 ± 3%
same,Angiogenic response (% inhibition),[4]; 20 μM peptide,2 ± 5%
same,activity in the CAM assay,[4],inactive
TSP1: calcium replete thrombospondin-1 purified from human platelets,SCLC cell adhesion,[8]; 6.2 μg/ml,15 ± 2 cells/mm2
same,SCLC cell adhesion,[8]; 12.5 μg/ml,30 ± 4 cells/mm2
same,SCLC cell adhesion,[8]; 25 μg/ml,48 ± 4 cells/mm2
same,SCLC cell adhesion,[8]; 50 μg/ml,55 ± 10 cells/mm2
same,HDME cell proliferation after plating on immobilized substance,[9],enhancement
same,SCLC cell adhesion,[10]; 12.5 μg/ml,46 ± 8 cells/mm2
same,SCLC cell adhesion,[10]; 25 μg/ml,94 ± 6 cells/mm2
same,SCLC cell adhesion,[10]; 50 μg/ml,110 ± 14 cells/mm2
same,SCLC cell adhesion,"[10]; substrate coated at 6.2 μg/ml, mean ± S.D., n = 3",6 ± 1 cells/mm2
same,percent spread HUVEC on immobilized substrate,[11]; confluent cells,41±5%
same,percent spread HUVEC on immobilized substrate,[11]; sparse cultures,46±7%
same,SCLC cell adhesion,[12]; 6.2 μg/ml,1 ± 1 cells/mm2
same,SCLC cell adhesion,[12]; 12.5 μg/ml,7 ± 1 cells/mm2
same,SCLC cell adhesion,[12]; 25 μg/ml,124 ± 17 cells/mm2
same,SCLC cell adhesion,[12]; 50 μg/ml,165 ± 6 cells/mm2
same,percent spread BAE cells on substrate,[7]; [16],less than 10%
same,percent spread HDME cells on immobilized substrate,[13]; cells from sparse culture,29%
same,percent spread HDME cells on immobilized substrate,[13]; [16],6%
ri-FQGVLQNVRFVF [Peptide 709],inhibition of BAE cell migration into the wound,[6],dose-dependent inhibitor
same,Angiogenic response (% inhibition),[4]; 5 μM peptide,5 ± 4%
same,Angiogenic response (% inhibition),[4]; 10 μM peptide,25 ± 13%
same,Angiogenic response (% inhibition),[4]; 20 μM peptide,39 ± 13%
same,activity in the CAM assay,[4],enhanced activity
